pIC50: −log10 of the molar value.
Molecular target: FP receptor (Homo sapiens (Human), UniProt P43088)
Test: In vitro test of inhibition of human FP receptor activity (PGF2α-induced calcium flux in FP-expressing CHEM1 cells)
Assay type: cell-based
Settings: PGF2α 2 nM, some mean values of multiple determinations
Outline: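 FP antagonism in FP-expressing CHEM1 cells loaded with Fluo-8. Compound preincubated 10 min at 37° C, then receptor stimulated with 2 nM (final) PGF2α in calcium-free Tyrode with 2 mM CaCl2.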

Sequence of FP receptor (P43088 whole entry): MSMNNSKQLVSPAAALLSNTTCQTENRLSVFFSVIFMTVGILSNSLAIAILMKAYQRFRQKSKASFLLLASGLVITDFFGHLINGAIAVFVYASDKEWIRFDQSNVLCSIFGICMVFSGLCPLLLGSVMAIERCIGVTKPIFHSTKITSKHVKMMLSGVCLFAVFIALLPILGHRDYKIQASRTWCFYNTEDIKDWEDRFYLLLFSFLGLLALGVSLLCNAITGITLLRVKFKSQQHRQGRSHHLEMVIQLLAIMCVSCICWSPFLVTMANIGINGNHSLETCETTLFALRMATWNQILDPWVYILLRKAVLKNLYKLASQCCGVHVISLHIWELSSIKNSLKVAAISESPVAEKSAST

Row | Structure (SMILES) | pIC50
1 | Cc1c(N2CCCC(F)(F)C2)nc2ccc(Br)cc2c1C(=O)NCC(CCC(=O)O)c1c(F)ccc(F)c1Cl (single isomer, unassigned; (+)) [Example 217, (+)-5-({[6-Bromo-2-(3,3-difluoropiperidin-1-yl)-3-methylquinolin-4-yl]carbonyl}amino)-4-(2-chloro-3,6-difluorophenyl)pentanoic acid] | 7.30
2 | Cc1c(N2CCCCCC2)nc2ccc(Br)cc2c1C(=O)NCC(CCC(=O)O)c1c(F)ccc(F)c1Cl (single isomer, unassigned; (+)) [Example 219, (+)-5-({[2-(Azepan-1-yl)-6-bromo-3-methylquinolin-4-yl]carbonyl}amino)-4-(2-chloro-3,6-difluorophenyl)pentanoic acid] | 7.54
3 | CCC1CCCN(c2nc3ccc(Br)cc3c(C(=O)NCC(CCC(=O)O)c3cc(F)ccc3F)c2C)C1 (single isomer, unassigned; (+)) [Example 227, (+)-5-[({6-Bromo-2-[3-ethylpiperidin-1-yl]-3-methylquinolin-4-yl}carbonyl)amino]-4-(2,5-difluorophenyl)pentanoic acid] | 7.24
4 | Cc1ccccc1C(CCC(=O)O)CNC(=O)c1c(C)c(N2CCCC(F)(F)C2)nc2ccc(Br)cc12 (single isomer, unassigned; (+)) [Example 231, (+)-5-({[6-Bromo-2-(3,3-difluoropiperidin-1-yl)-3-methylquinolin-4-yl]carbonyl}amino)-4-(2-methylphenyl)pentanoic acid] | 7.41
5 | Cc1ccccc1C(CCC(=O)O)CNC(=O)c1c(C)c(N2CCCC2)nc2ccc(Br)cc12 (single isomer, unassigned; (+)) [Example 233, (+)-5-({[6-Bromo-3-methyl-2-(pyrrolidin-1-yl)quinolin-4-yl]carbonyl}amino)-4-(2-methylphenyl)pentanoic acid] | 7.08
6 | Cc1c(N2CCCC(F)(F)C2)nc2ccc(Br)cc2c1C(=O)NCC(CCC(=O)O)c1c(F)cccc1F (single isomer, unassigned; (+)) [Example 251, (+)-5-({[6-Bromo-2-(3,3-difluoropiperidin-1-yl)-3-methylquinolin-4-yl]carbonyl}amino)-4-(2,6-difluorophenyl)pentanoic acid] | 7.14
7 | Cc1c(N2CCCC2)nc2ccc(Br)cc2c1C(=O)NCC(CCC(=O)O)c1cc(F)ccc1F (single isomer, unassigned; (+)) [Example 259, (+)-5-({[6-Bromo-3-methyl-2-(pyrrolidin-1-yl)quinolin-4-yl]carbonyl}amino)-4-(2,5-difluorophenyl)pentanoic acid] | 7.26
8 | Cc1c(N2CCCC(F)(F)C2)nc2ccc(Br)cc2c1C(=O)NCC(CCC(=O)O)c1c(Cl)cccc1Cl (single isomer, unassigned; (+)) [Example 266, (+)-5-({[6-Bromo-2-(3,3-difluoropiperidin-1-yl)-3-methylquinolin-4-yl]carbonyl}amino)-4-(2,6-dichlorophenyl)pentanoic acid] | 7.43

The next compounds have a higher pIC50 than those just listed; values first:

Row | pIC50 | Structure (SMILES)
9 | 7.55 | Cc1c(N2CCCC(F)(F)C2)nc2ccc(Br)cc2c1C(=O)NCC(CCC(=O)O)c1cc(F)ccc1F (single isomer, unassigned; (+)) [Example 263, (+)-5-({[6-Bromo-2-(3,3-difluoropiperidin-1-yl)-3-methylquinolin-4-yl]carbonyl}amino)-4-(2,5-difluorophenyl)pentanoic acid]
10 | 7.57 | Cc1c(N2CCCCC2)nc2ccc(Br)cc2c1C(=O)NCC(CCC(=O)O)c1c(F)cccc1F (single isomer, unassigned; (+)) [Example 245, (+)-5-({[6-Bromo-3-methyl-2-(piperidin-1-yl)quinolin-4-yl]carbonyl}amino)-4-(2,6-difluorophenyl)pentanoic acid]
11 | 7.68 | Cc1ccc(F)cc1C(CCC(=O)O)CNC(=O)c1c(C)c(N2CCCC(F)(F)C2)nc2ccc(Br)cc12 (single isomer, unassigned; (+)) [Example 214, (+)-5-({[6-Bromo-2-(3,3-difluoropiperidin-1-yl)-3-methylquinolin-4-yl]carbonyl}amino)-4-(5-fluoro-2-methylphenyl)pentanoic acid]
12 | 7.77 | Cc1c(N2CCCC(C)C2)nc2ccc(Br)cc2c1C(=O)NCC(CCC(=O)O)c1ccccc1OC(F)(F)F (single isomer, unassigned; (+)) [Example 211, (+)-5-[({6-Bromo-3-methyl-2-[3-methylpiperidin-1-yl]quinolin-4-yl}carbonyl)amino]-4-[2-(trifluoromethoxy)phenyl]pentanoic acid]
13 | 7.82 | Cc1c(N2CCCCC2)nc2ccc(Br)cc2c1C(=O)NCC(CCC(=O)O)c1cc(F)ccc1F (single isomer, unassigned; (+)) [Example 257, (+)-5-({[6-Bromo-3-methyl-2-(piperidin-1-yl)quinolin-4-yl]carbonyl}amino)-4-(2,5-difluorophenyl)pentanoic acid]
14 | 8.37 | COc1ccccc1C(CCC(=O)O)CNC(=O)c1c(C)c(N2CCCC2)nc2ccc(Br)cc12 (single isomer, unassigned; (+)) [Example 237, (+)-5-({[6-Bromo-3-methyl-2-(pyrrolidin-1-yl)quinolin-4-yl]carbonyl}amino)-4-(2-methoxyphenyl)pentanoic acid]
15 | 8.41 | Cc1c(N2CCCC2)nc2ccc(Br)cc2c1C(=O)NCC(CCC(=O)O)c1c(F)ccc(F)c1Cl (single isomer, unassigned; (+)) [Example 215, (+)-5-({[6-Bromo-3-methyl-2-(pyrrolidin-1-yl)quinolin-4-yl]carbonyl}amino)-4-(2-chloro-3,6-difluorophenyl)pentanoic acid]
16 | 8.72 | Cc1c(N2CCCC(C)C2)nc2ccc(Br)cc2c1C(=O)NCC(CCC(=O)O)c1ccccc1OC(F)(F)F (single isomer, unassigned; (+)) [Example 212, (+)-5-[({6-Bromo-3-methyl-2-[3-methylpiperidin-1-yl]quinolin-4-yl}carbonyl)amino]-4-[2-(trifluoromethoxy)phenyl]pentanoic acid]
17 | 8.85 | CCC1CCCN(c2nc3ccc(Br)cc3c(C(=O)NCC(CCC(=O)O)c3ccccc3OC(F)(F)F)c2C)C1 (single isomer, unassigned; (+)) [Example 208, (+)-5-[({6-Bromo-2-[3-ethylpiperidin-1-yl]-3-methylquinolin-4-yl}carbonyl)amino]-4-[2-(trifluoromethoxy)phenyl]pentanoic acid]
18 | 8.85 | COc1ccccc1C(CCC(=O)O)CNC(=O)c1c(C)c(N2CCCCC2)nc2ccc(Br)cc12 (single isomer, unassigned; (+)) [Example 235, (+)-5-({[6-Bromo-3-methyl-2-(piperidin-1-yl)quinolin-4-yl]carbonyl}amino)-4-(2-methoxyphenyl)pentanoic acid]
19 | 8.85 | COc1ccccc1C(CCC(=O)O)CNC(=O)c1c(C)c(N2CCCCCC2)nc2ccc(Br)cc12 (single isomer, unassigned; (+)) [Example 239, (+)-5-({[2-(Azepan-1-yl)-6-bromo-3-methylquinolin-4-yl]carbonyl}amino)-4-(2-methoxyphenyl)pentanoic acid]
20 | 8.96 | CCC1CCCN(c2nc3ccc(Br)cc3c(C(=O)NCC(CCC(=O)O)c3cc(F)ccc3F)c2C)C1 (single isomer, unassigned; (+)) [Example 228, (+)-5-[({6-Bromo-2-[3-ethylpiperidin-1-yl]-3-methylquinolin-4-yl}carbonyl)amino]-4-(2,5-difluorophenyl)pentanoic acid]
